Entries after “also recorded” stand apart in the source; their conditions may differ. *1 amine or outer side, *2 acyl side, *3 side chain or, on linkers, in order; H or OH if unused. Where a SMILES comes first, the peptide text is derived from it. Bridges are numbered along the chain shown (N, C = ends). Roman numbers before positions name the chains, in order. [ ]: non-standard residue; d: D form. Actinocin(9to1) = Cc1c2oc3c(C)ccc(C(=O)[*:1])c3nc-2c(C(=O)[*:2])c(N)c1=O; NMeV = CN[C@H](C(=O)O)C(C)C; Sar = CNCC(=O)O
Tests used:
Assay type in all cases: cell-based, rat
[1] = system: primary cortical astrocytes; test: Effect of COX inhibitors on mc-PAF-induced PGE2 release from primary astrocytes (Example 3)
Method: Mc-PAF (Cayman Chemical, Ann Arbor, Mich.) was dissolved in ethanol at a stock concentration of 10 mM. Indomethacin, piroxicam, NS-398 (Biomol; Plymouth Meeting, Mass.), and SC-560 (Cayman Chemical) were dissolved in 45% hydroxy-β-cyclodextrin (HBC; Sigma, St. Louis, Mo.). Cells were serum-deprived for 24 hrs prior to experimental treatments to induce quiescence. Where treatment with inhibitors is indicated, these compounds were added 30 min prior to the addition of mc-PAF.
Direct assay of the PGE2 concentration in cell-conditioned medium was used as an index of PGE2 secretion by primary astrocytes. PGE2 levels were measured by ELISA according to manufacturer's instructions (Cayman Chemicals, Ann Arbor, Mich.), as described.
Results were derived from at least 3 separate experiments, assayed in duplicate or triplicate (n=6−8). Data were expressed as means+/−SEMs. Statistical analyses were performed using ANOVAs for comparisons between groups, followed by Fischer's PLSD post hoc comparisons by means contrast. p values <0.05 were considered statistically significant.

[2] = system: astrocyte-enriched cortical cell cultures; test: PGE2 release (ELISA) from astrocyte-enriched cortical cell cultures exposed to PAF analogs, related lipids or AA; conditions: for PGE2 release into the conditioned media: various concentrations; for concentration giving peak PGE2 release: higher and lower concentrations elicited less release
Method: (§1) All experimental protocols were approved by the Massachusetts Institute of Technology institutional review committee and meet the guidelines of the National Institutes of Health. Dissociated astrocytes were cultured from cortices of postnatal day 1-2 rat pups (as described by K. D. McCarthy, et al., Preparation of separate astroglial and oligodendroglial cell cultures from rat cerebral tissue, J. Cell Biol. 85 (1980) 890-902, with minor modifications R. K. K. Lee, et al., Metabolic glutamate receptors increase amyloid precursor protein processing in astrocytes: inhibition by cyclic AMP, J. Neurochem. 68 (1997) 1830-1835.) In brief, cells from dissociated cortices were plated onto poly-L-lysine coated 35- or 100 mm culture dishes. The initial culture media, minimal essential medium (MEM, Gibco-Life Technologies; Rockville, Md.) containing 15% horse serum (BioWhittaker; Walkersville, Md.), were aspirated 2-5 h after plating to remove unattached cells and debris, and replaced with MEM containing 5% fetal bovine serum (FBS, BioWhittaker; Walkersville, Md.). Half the medium was replaced with MEM/5% FBS twice weekly. Astrocytes were kept at 37° C. in a humidified 5% CO2/95% air incubator for 9-15 days, by which time the cultures were confluent and could be used for experiments.
(§2) Mc-PAF (Biomol; Plymouth Meeting, PA) was dissolved in methanol at a stock concentration of 10 mM. PAF-16, PAF-18, lyso-PAF, AA (Cayman Chemicals), lyso-PC and PC (Sigma) were dissolved in ethanol at stock concentrations of 10 mM. All stock solutions of lipids were stored at −80° C. and were used within 6 weeks of reconstitution. BN 52021 and CV 6209 (Biomol) were dissolved in ethanol. These PAF antagonists were stored at −20° C. in stock concentrations of 100 mM. BN 50730 (Biomeasure; Milford, Mass.) was dissolved in 45% hydroxy-B-cyclodextrin (HBC). All agents were diluted in warned serum-free medium prior to cell stimulation. Equal amounts of vehicle was added to control cells.
(§3) Cells used for all experiments were established in vitro 9-15 days prior to use in experiments and were over 95% confluent. Serum-containing media were changed every 3-4 days. Cells were serum-deprived 24 hours prior to experimental treatments. Where treatment with PAF antagonists is indicated, these compounds were added 30 minutes prior to the addition of other agents.
(§4) PGE2 levels were measured by ELISA according to manufacturer's instructions (Cayman Chemicals, Ann Arbor, Mich.). Since the amount of PGE2 in fresh medium was negligible, (J. Luo, et al., Transforming growth factor B1 regulates the expression of cyclooxygenase in cultured cortical astrocytes and neurons, J. Neurochem. 71 (1998) 526-534), direct assays of the PGE2 concentration in cell-conditioned medium was used as a measurement of PGE2 secretion by cultured cells. Results were derived from at least 3 separate experiments, assayed in duplicate or triplicate (n=6-8). The reliable detection limit of this assay (i.e. sensitivity) averaged 14+/−6 pg of PGE2.

[3] = system: astrocyte-enriched cortical cell cultures; test: Effect of PAF antagonists on mc-PAF-, lyso-PAF- and AA-induced PGE2 release from astrocytes; conditions: for mc-PAF-induced PGE2 release: antagonist added 30 min before mc-PAF (1 μM), 30 min, BN 50730 0.1-100 μM, BN 52021 and CV 6209 1-50 μM; for PGE2 release, antagonist administered alone: no mc-PAF
Method: as §1, §2, §3, §4

[4] = various inhibitor concentrations (indomethacin 1, 10, and 50 μM), 30 min prior to mc-PAF (0.1 uM) for 30 min
[5] = pre-treatment, actinomycin D 5 μg/ml, cyclohexamide 10 μg/ml, data not shown
[6] = 10, 1, 0.1, and 0.01 μM, 30 min

`COc1ccc2c(c1)c(CC(=O)O)c(C)n2C(=O)c1ccc(Cl)cc1` [indomethacin] was tested, and the “basal PGE2 release” value ([1]; indomethacin 1, 10, and 50 μM) was “without affecting basal PGE2 release” and the “mc-PAF-induced PGE2 release” value [1, 4] was “attenuated; also recorded: completely blocked”.

`CCCCC/C=C\C/C=C\C/C=C\C/C=C\CCCC(=O)O` [AA, arachidonic acid] was tested, and the PGE2 release ([2]; AA 0.01-10 μM, 30 minutes) was “increased PGE2 release”, the “PGE2 release on co-administration with mc-PAF” value ([2]; high AA concentration 10 μM with mc-PAF, 30 min) was “no synergism” and the “PGE2 release on co-administration with mc-PAF” value ([2]; low AA concentration 0.01 μM with mc-PAF (0.1, 1 or 10 μM), 30 min) was “additive increase”.

With `Cc1c2oc3c(C)ccc(C(=O)N[C@@H]4C(=O)N[C@H](C(C)C)C(=O)N5CCC[C@H]5C(=O)N(C)CC(=O)N(C)[C@@H](C(C)C)C(=O)O[C@@H]4C)c3nc-2c(C(=O)N[C@@H]2C(=O)N[C@H](C(C)C)C(=O)N3CCC[C@H]3C(=O)N(C)CC(=O)N(C)[C@@H](C(C)C)C(=O)O[C@@H]2C)c(N)c1=O` [actinomycin D] (I: T[dV]P[Sar][NMeV] / II: T[dV]P[Sar][NMeV]; ester I:1-I:C, II:1-II:C; linker I:N-II:N via Actinocin(9to1)) the “mc-PAF-induced PGE2 release” value [1, 5] was “had no effect”.

For phosphatidylcholine [PC], the PGE2 release [2, 6] was “had no effect”.

lyso-phosphatidylcholine [lyso-PC] was tested, and the PGE2 release [2, 6] was “had no effect”.

In the case of `COc1ccc(-n2nc(C(F)(F)F)cc2-c2ccc(Cl)cc2)cc1` [SC-560], the “mc-PAF-induced PGE2 release” value [1, 4] is reported as “did not significantly influence; also recorded: did not significantly do so; also recorded: minimal influence”.

`CN1C(C(=O)Nc2ccccn2)=C(O)c2ccccc2S1(=O)=O` [piroxicam] was tested, and the “mc-PAF-induced PGE2 release” value ([1]; piroxicam 50 μM, effect not statistically significant) was “attenuated some of this PGE2 release”, the “mc-PAF-induced PGE2 release” value ([1]; piroxicam 1 or 10 μM, 30 min prior to mc-PAF (0.1 uM)) was “had no effect” and the “mc-PAF-induced PGE2 release” value [1, 4] was “did not significantly do so; also recorded: minimal influence”.

For `CCCCCCCCCCCCCCCCOC[C@@H](O)COP(=O)([O-])OCC[N+](C)(C)C` [lyso-PAF], the “concentration at which PGE2 release was significantly increased” value ([2]; 30 min, 37° C.) was 10 µM and the “PGE2 release into the conditioned media” value ([2]; 30 min, 37° C.) was “concentration-dependent increases”.

In the case of `CS(=O)(=O)Nc1ccc([N+](=O)[O-])cc1OC1CCCCC1` [NS-398], the “basal PGE2 release” value ([1]; NS-398 highest concentrations, 10 and 50 μM) is reported as “prevented basal PGE2 release” and the “mc-PAF-induced PGE2 release” value [1, 4] is reported as “completely abolished; also recorded: completely blocked”.

With `CCCCCCCCCCCCCCCCCCNC(=O)OCC(COC(=O)N(Cc1cccc[n+]1CC)C(C)=O)OC` (stereo not drawn) [CV 6209] the “mc-PAF-induced PGE2 release” value [3] was “no significant effect; also recorded: do not attenuate”, the “mc-PAF-induced PGE2 release” value ([3]; listed as CV-6209) was “did not significantly influence” and the “AA-induced PGE2 release” value ([3]; antagonist added 30 min prior) was “had no effect”. For the same compound, the “lyso-PAF-induced PGE2 release” value ([3]; antagonist added 30 min prior) was “had no effect”, the “PGE2 release, antagonist administered alone” value [3] was “PGE2 release was increased” and the “PGE2 release, antagonist administered alone” value ([3]; listed as CV-6209) was “increased PGE2 release”.

For `C[C@@H]1C[C@@H]([C@H](O)CC2CC(=O)NC(=O)C2)C(=O)[C@@H](C)C1` [cyclohexamide], the “mc-PAF-induced PGE2 release” value [1, 5] was “had no effect”.

With `CCCCCCCCCCCCCCCCOC[C@H](COP(=O)([O-])OCC[N+](C)(C)C)OC(C)=O` [PAF-16] the “PGE2 release into the conditioned media” value ([2]; 30 min, 37° C.) was “concentration-dependent increases” and the “concentration giving peak PGE2 release” value ([2]; 30 min) was 0.1 µM.

With `CCCCCCCCCCCCCCCCCCOC[C@H](COP(=O)([O-])OCC[N+](C)(C)C)OC(C)=O` [PAF-18] the “PGE2 release into the conditioned media” value ([2]; 30 min, 37° C.) was “concentration-dependent increases” and the “concentration giving peak PGE2 release” value ([2]; 30 min) was 0.1 µM.

From patent publication US20050032713A1, “Platelet-activating factor antagonists as analgesic, anti-inflammatory, uterine contraction inhibiting, and anti-tumor agents” (priority 2002, published 2005)
